Each structure is given as a SMILES string. Structures can show the parent of a compound that is named as a salt.

Broadly, the IC50 is the concentration that gives 50% inhibition. A high value points to a need for much substance.

The assay deals with T1, human prostaglandin D2 receptor (DP) (Homo sapiens, UniProt Q13258).
T1 construct: endogenous in cells; host or cells: human platelets in platelet-rich plasma from donor blood
T1 sequence (Q13258 1-359): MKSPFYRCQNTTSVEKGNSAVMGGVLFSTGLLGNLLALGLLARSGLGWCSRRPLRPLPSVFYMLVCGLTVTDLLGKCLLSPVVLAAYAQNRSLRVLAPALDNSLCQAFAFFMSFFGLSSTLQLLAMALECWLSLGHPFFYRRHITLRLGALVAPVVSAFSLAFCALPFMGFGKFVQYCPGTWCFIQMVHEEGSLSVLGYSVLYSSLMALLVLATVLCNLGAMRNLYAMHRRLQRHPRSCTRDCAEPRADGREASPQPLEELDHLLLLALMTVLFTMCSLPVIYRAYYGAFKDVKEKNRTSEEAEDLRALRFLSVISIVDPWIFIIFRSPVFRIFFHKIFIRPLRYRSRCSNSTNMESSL
Briefly: BW245C-induced cAMP accumulation in human platelet rich plasma (hPRP) by HTRF cAMP assay. The class given is cell-based. Particulars: inhibition of BW245C (25 nM)-induced cAMP accumulation in human platelet-rich plasma. An excerpt:
Assessment of Antagonist Activities of Compounds on BW245C-Induced cAMP
Accumulation in Human Platelet Rich Plasma (hPRP) by HTRF cAMP Assay
The purpose of the assay is to assess compound antagonist activity at the human prostaglandin D2 receptor (DP), also known as (DP1), in the presence of plasma proteins. DP is a Gs-protein coupled receptor, the activation of which induces cAMP accumulation. BW245C is a DP selective agonist. Therefore, by measuring inhibition of BW245C-induced 3′-5′-cyclic adenosine monophosphate (cAMP) accumulation in human platelet-rich plasma (hPRP), the assay enables us to identify or confirm antagonist compounds at the human DP and/or IP receptors.
The principle of the assay is based on HTRF technology (Homogeneous Time-Resolved Fluorescence). The method is a competitive immunoassay between native cAMP produced by cells and the tracer cAMP labeled with the dye d2. The tracer is visualized by a monoclonal antibody anti-cAMP labeled with cryptate. The specific signal (i.e. energy transfer) is inversely related to the concentration of cAMP in the standards or samples. The assay was carried out using the cAMP HiRange HTRF kit from Cisbio (catalog number 62AM6PEB, 888-963-4567).
Preparation of Human Platelet Rich Plasma (hPRP): Human blood was obtained from sanofi-aventis on-site blood donor panel. […]
(cAMP levels reflect the balance of adenylyl cyclase and phosphodiesterase activity.)

`COc1nc(NCCc2ccc(OC(F)(F)F)cc2)cc(N2CCC[C@@H](CC(=O)O)C2)n1` [drawing 23, (S)1-{2-Methoxy-6-[2-(4-trifluoromethoxy-phenyl)-ethylamino]-pyrimidin-4-yl}-piperidin-3-yl)-acetic acid, phosphoric acid salt] returned an IC50 of 73 nM.

The molecule `COc1nc(NCCc2ccc(OC(F)(F)F)cc2)cc(N2CCC[C@H](CC(=O)O)C2)n1` (single isomer, unassigned) [(R) enantiomer] gave an IC50 of 155 nM.
